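96-well plates; 48 h exposure; 5 concentrations. Endpoints by linear interpolation between flanking doses. Not reached: highest tested concentration assigned. Here, GI50 denotes the concentration required for 50% inhibition of growth. TGI: total growth inhibition.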
Key:
Test in all cases: NCI tumour cell line growth inhibition, 48 h
[1] = test system: CAKI-1 renal
[2] = test system: RPMI-8226 leukemia
[3] = test system: U251 CNS
[4] = test system: SK-MEL-5 melanoma
[5] = test system: IGROV1 ovarian
[6] = test system: KM12 colon
[7] = test system: OVCAR-8 ovarian
[8] = test system: OVCAR-4 ovarian
[9] = test system: T-47D breast
[10] = test system: HS 578T breast

**Q.** Which results are given for `COc1ccc2nc(C(=O)c3ccccc3)c(C)cc2c1`?
**A.** TGI [1]: > 100 µM; TGI [2]: > 100 µM; TGI [3]: 10.8 µM; TGI [4]: 12.3 µM; TGI [5]: > 73.1 µM; TGI [6]: > 45.8 µM; TGI [7]: > 46.3 µM; TGI [8]: > 100 µM

**Q.** Which results are given for `COC1CC(O)C(OC(=O)c2ccccc2)C(C)O1` (configuration not stated)?
**A.** TGI [1]: > 100 µM; TGI [2]: > 100 µM; TGI [3]: > 100 µM; TGI [4]: > 100 µM; TGI [5]: > 100 µM; TGI [6]: > 100 µM; TGI [7]: > 100 µM; TGI [8]: > 100 µM

**Q.** What does the source list for `Cc1ccc2nc(NC(=O)C(=O)C(C#N)c3ccc(Cl)cc3)sc2c1` (configuration not stated)?
**A.** TGI [1]: > 50 µM; TGI [2]: > 50 µM; TGI [3]: > 50 µM; TGI [5]: > 50 µM; TGI [6]: > 50 µM; TGI [7]: > 50 µM; TGI [8]: > 50 µM

**Q.** What does the source list for `COc1ccccc1NC(=O)C1=C(C)NC(C)=C(C(=O)Nc2ccccc2OC)C1/C=C/c1ccccc1`?
**A.** TGI [1]: > 100 µM; TGI [2]: > 100 µM; TGI [3]: > 100 µM; TGI [4]: > 100 µM; TGI [5]: > 100 µM; TGI [6]: > 100 µM; TGI [7]: > 100 µM; TGI [8]: > 100 µM

**Q.** How did the GI50 [9] turn out when `Cc1ccc(-c2nc(/C=N/Nc3cc(C)nc4ccc(Cl)cc34)c(C)o2)cc1` was run?
**A.** Its GI50 is 1.8 µM.

**Q.** What about the TGI [9] of the same molecule?
**A.** The TGI was 3.72 µM.

**Q.** What about the GI50 [1] of the same molecule?
**A.** Its GI50 is 1.74 µM.

**Q.** What about the TGI [1] of the same molecule?
**A.** Its TGI is 3.19 µM.

**Q.** And the GI50 [2]?
**A.** Its GI50 is 1.69 µM.

**Q.** And the TGI [2]?
**A.** Its TGI is 4.2 µM.

**Q.** What about the GI50 [3] of the same molecule?
**A.** The GI50 was 1.83 µM.

**Q.** What about the TGI [3] of the same molecule?
**A.** The TGI was 3.39 µM.

**Q.** What about the GI50 [4] of the same molecule?
**A.** Its GI50 is 1.76 µM.

**Q.** What about the TGI [4] of the same molecule?
**A.** The TGI was 3.15 µM.

**Q.** And the GI50 [5]?
**A.** The GI50 was 1.81 µM.

**Q.** What about the TGI [5] of the same molecule?
**A.** The TGI was 3.48 µM.

**Q.** What about the GI50 [6] of the same molecule?
**A.** The GI50 was 1.88 µM.

**Q.** What about the TGI [6] of the same molecule?
**A.** Its TGI is 3.88 µM.

**Q.** And the GI50 [7]?
**A.** The GI50 was 1.65 µM.

**Q.** What about the TGI [7] of the same molecule?
**A.** The TGI was 4.13 µM.

**Q.** What about the GI50 [8] of the same molecule?
**A.** Its GI50 is 1.8 µM.

**Q.** What about the TGI [8] of the same molecule?
**A.** Its TGI is 3.42 µM.

**Q.** How did the TGI [1] turn out when `CCOC(=O)/C(=C/c1cccc(Cl)c1)N(CC)CC` was run?
**A.** The TGI was greater than 100 µM.

**Q.** And the TGI [2]?
**A.** Its TGI is greater than 100 µM.

**Q.** What about the TGI [3] of the same molecule?
**A.** Its TGI is greater than 100 µM.

**Q.** And the TGI [4]?
**A.** Its TGI is greater than 100 µM.

**Q.** And the TGI [5]?
**A.** The TGI was greater than 100 µM.

**Q.** And the TGI [6]?
**A.** Its TGI is greater than 100 µM.

**Q.** What about the TGI [7] of the same molecule?
**A.** The TGI was greater than 100 µM.

**Q.** What about the TGI [8] of the same molecule?
**A.** Its TGI is greater than 100 µM.

**Q.** With `C/C(CN1C(=O)c2ccccc2C1=O)=N\NS(=O)(=O)c1cccc(C(=O)O)c1` as the molecule, how does the TGI [1] read?
**A.** The TGI was greater than 100 µM.

**Q.** And the TGI [2]?
**A.** Its TGI is greater than 100 µM.

**Q.** What about the TGI [3] of the same molecule?
**A.** The TGI was greater than 100 µM.

**Q.** And the TGI [4]?
**A.** Its TGI is greater than 100 µM.

**Q.** And the TGI [5]?
**A.** Its TGI is greater than 100 µM.

**Q.** What about the TGI [6] of the same molecule?
**A.** The TGI was greater than 100 µM.

**Q.** What about the TGI [7] of the same molecule?
**A.** Its TGI is greater than 100 µM.

**Q.** What about the TGI [8] of the same molecule?
**A.** The TGI was greater than 100 µM.

**Q.** `CC1=C(C(=O)Nc2ccccc2)C(c2ccccc2Cl)C(C(=O)Nc2ccccc2)=C(C)N1` was tested. Which TGI [1] did it give?
**A.** The TGI was 57.2 µM.

**Q.** What about the TGI [2] of the same molecule?
**A.** The TGI was 46.9 µM.

**Q.** And the TGI [3]?
**A.** The TGI was 35.8 µM.

**Q.** And the TGI [4]?
**A.** The TGI was 29.8 µM.

**Q.** What about the TGI [5] of the same molecule?
**A.** The TGI was 65.4 µM.

**Q.** What about the TGI [7] of the same molecule?
**A.** Its TGI is 91.8 µM.

**Q.** What about the TGI [8] of the same molecule?
**A.** The TGI was greater than 100 µM.

**Q.** Which TGI [9] does the source give for `CCOC(=O)C(Cc1ccc(N(CCCl)CCCl)cc1)NC(=O)C(Cc1ccccc1)NC=O` (configuration not stated) here?
**A.** The TGI was 0.241 µM.

**Q.** And the TGI [1]?
**A.** Its TGI is 0.264 µM.

**Q.** What about the TGI [2] of the same molecule?
**A.** Its TGI is 0.355 µM.

**Q.** What about the TGI [3] of the same molecule?
**A.** The TGI was 0.499 µM.

**Q.** And the TGI [4]?
**A.** The TGI was 0.355 µM.

**Q.** What about the TGI [5] of the same molecule?
**A.** The TGI was 0.222 µM.

**Q.** What about the TGI [6] of the same molecule?
**A.** The TGI was 0.638 µM.

**Q.** And the TGI [7]?
**A.** Its TGI is 0.527 µM.

**Q.** What about the TGI [8] of the same molecule?
**A.** The TGI was 0.123 µM.

**Q.** With `COc1ccc(-c2ccc(/C=N/n3c(COc4ccccc4Cl)nn(CN4CCOCC4)c3=S)o2)c([N+](=O)[O-])c1` as the molecule, how does the GI50 [9] read?
**A.** The GI50 was 53.9 µM.

**Q.** What about the TGI [9] of the same molecule?
**A.** Its TGI is greater than 100 µM.

**Q.** What about the GI50 [1] of the same molecule?
**A.** Its GI50 is 21.3 µM.

**Q.** And the TGI [1]?
**A.** The TGI was 56.3 µM.

**Q.** And the GI50 [2]?
**A.** Its GI50 is 15.2 µM.

**Q.** And the TGI [2]?
**A.** The TGI was 42.1 µM.

**Q.** What about the GI50 [3] of the same molecule?
**A.** Its GI50 is 26.1 µM.

**Q.** And the TGI [3]?
**A.** Its TGI is greater than 100 µM.

**Q.** What about the GI50 [10] of the same molecule?
**A.** The GI50 was 33.9 µM.

**Q.** What about the TGI [10] of the same molecule?
**A.** Its TGI is 90.4 µM.

**Q.** What about the GI50 [5] of the same molecule?
**A.** Its GI50 is 59.5 µM.

**Q.** What about the TGI [5] of the same molecule?
**A.** Its TGI is greater than 100 µM.

**Q.** And the GI50 [6]?
**A.** Its GI50 is 17.1 µM.

**Q.** And the TGI [6]?
**A.** Its TGI is 34.6 µM.

**Q.** What about the GI50 [7] of the same molecule?
**A.** Its GI50 is 39.4 µM.

**Q.** What about the TGI [7] of the same molecule?
**A.** Its TGI is greater than 100 µM.

**Q.** And the GI50 [8]?
**A.** Its GI50 is 35.1 µM.

**Q.** What about the TGI [8] of the same molecule?
**A.** The TGI was greater than 100 µM.

**Q.** For `CC(C)c1cccc(C(C)C)c1N1C(=O)C(=O)C(c2nc3ccccc3o2)C(=O)C1=O`, which TGI [1] is on record?
**A.** Its TGI is greater than 100 µM.

**Q.** What about the TGI [2] of the same molecule?
**A.** The TGI was greater than 100 µM.

**Q.** And the TGI [3]?
**A.** Its TGI is greater than 100 µM.

**Q.** What about the TGI [4] of the same molecule?
**A.** Its TGI is greater than 100 µM.

**Q.** What about the TGI [5] of the same molecule?
**A.** The TGI was greater than 100 µM.

**Q.** What about the TGI [6] of the same molecule?
**A.** The TGI was greater than 100 µM.

**Q.** What about the TGI [7] of the same molecule?
**A.** The TGI was greater than 100 µM.

**Q.** And the TGI [8]?
**A.** The TGI was greater than 100 µM.

— PubChem BioAssay (NCI)
